{"source": "patent US20210115018A1", "about": "“PIPERIDINE COMPOUNDS AS COVALENT MENIN INHIBITORS” (THE REGENTS OF THE UNIVERSITY OF MICHIGAN, priority 2018, published 2021)", "data": [{"test_system": "MV4-11", "experiment": "7-day proliferation assay (WST-8), cell growth inhibition", "format": "cell-based", "settings": "Homo sapiens, MV4-11, 168 h, MV4-11 cells, 7 days", "method": "(§1) The effect of representative Compounds of the Disclosure on cell viability was determined in a 7-day proliferation assay. Cells were maintained in the appropriate culture medium with 10% FBS at 37° C. and an atmosphere of 5% CO2.\n(§2) Cells were seeded in 96-well flat bottom (Corning COSTAR, Corning, NY, cat#3595) at a density of 2,000-3,000 cells/well in 100 μl of culture medium. Compounds were serially diluted in the appropriate medium, and […] the diluted compounds were added to the appropriate wells of the cell plate. After the addition of compounds, the cells were incubated at 37° C. in an atmosphere of 5% CO2 for 7 days. Cell viability was determined using the WST (2-(2-methoxy-4-nitrophenyl)-3-(4-nitrophenyl)-5-(2,4-disulfophenyl)-2H-tetrazolium, monosodium salt) Cell Counting-8 Kit (Dojindo Molecular Technologies, Inc., Rockville, Md.) according to the manufacturers' instructions.\n(§3) WST-8 reagent was added to each well at a final concentration of 10% (v/v), and then the plates were incubated at 37° C. for 1-2 hours for color development. The absorbance was measured at 450 nm using a SPECTRAmax PLUS plate reader (Molecular Devices, Sunnyvale, Calif.). The readings were normalized to the DMSO-treated cells and the half maximal inhibitory concentration (IC50) was calculated by nonlinear regression (four parameters sigmoid fitted with variable slope, least squares fit, and no constraint) analysis using the GraphPad Prism 5 software (GraphPad Software, La Jolla, Calif.).", "units": {"IC50": "nM"}, "values": [{"smiles": "C=CC(=O)Nc1cc(S(=O)(=O)c2ccc(N3CC(F)(CN4CCC([C@@](CN5CCC5)(c5cccc(F)c5)[C@H]5CCC[C@@H]5NC(=O)OC)CC4)C3)c(F)c2)ccc1C", "note": "[compound 97]", "IC50": "< 10"}, {"smiles": "C=CC(=O)Nc1cc(S(=O)(=O)c2ccc(N3CC(CN4CCC([C@@](CN5CCC5)(c5cccc(F)c5)[C@H]5CCC[C@@H]5NC(=O)OC)CC4)C3)cc2)ccc1C(F)(F)F", "note": "[compound 81]", "IC50": "< 50"}, {"smiles": "CC#CC(=O)N1CC[C@@H](S(=O)(=O)c2ccc(N3CC(F)(CN4CCC([C@@](CN5CCC5)(c5cccc(F)c5)[C@H]5CCC[C@@H]5NC(=O)OC)CC4)C3)c(F)c2)C1", "note": "[compound 115]", "IC50": "< 50"}, {"smiles": "C#CC(=O)N1CC(S(=O)(=O)c2ccc(N3CC(F)(CN4CCC([C@@](CN5CCC5)(c5cccc(F)c5)[C@H]5CCC[C@@H]5NC(=O)OC)CC4)C3)c(F)c2)C1", "note": "[compound 101]", "IC50": "< 500"}, {"smiles": "C=CC(=O)Nc1cccc(S(=O)(=O)c2ccc(N3CC(CN4CCC([C@@](CN5CCC5)(c5cccc(F)c5)[C@H]5CCC[C@@H]5NC(=O)OC)CC4)C3)c(F)c2)c1", "note": "[compound 73]", "IC50": "< 10"}, {"smiles": "COC(=O)N[C@H]1CCC[C@@H]1[C@](CN1CCC1)(c1cccc(F)c1)C1CCN(CC2(F)CN(c3ccc(S(=O)(=O)C4CCCN(C(=O)NC/C=C/S(C)(=O)=O)C4)cc3F)C2)CC1", "note": "(some centres unmarked) [compound 123]", "IC50": "< 10"}, {"smiles": "C=CC(=O)Nc1cc(F)cc(S(=O)(=O)c2ccc(N3CC(F)(CN4CCC([C@@](CN5CCC5)(c5cccc(F)c5)[C@H]5CCC[C@@H]5NC(=O)OC)CC4)C3)c(F)c2)c1", "note": "[compound 89]", "IC50": "< 50"}, {"smiles": "C=CC(=O)Nc1cc(C(F)(F)F)cc(S(=O)(=O)c2ccc(N3CC(CN4CCC([C@@](CN5CCC5)(c5cccc(F)c5)[C@H]5CCC[C@@H]5NC(=O)OC)CC4)C3)cc2)c1", "note": "[compound 78]", "IC50": "< 10"}, {"smiles": "C=CC(=O)N(C)c1cccc(S(=O)(=O)c2ccc(N3CC(CN4CCC([C@@](CN5CCC5)(c5cccc(F)c5)[C@H]5CCC[C@@H]5NC(=O)OC)CC4)C3)cc2)c1", "note": "[compound 77]", "IC50": "< 50"}, {"smiles": "CC#CC(=O)N1CC(S(=O)(=O)c2ccc(N3CC(CN4CCC([C@@](CNC(C)=O)(c5cccc(F)c5)[C@H]5CCC[C@@H]5NC(=O)OC)CC4)C3)cc2CN2CC(F)C2)C1", "note": "[compound 164]", "IC50": "< 10"}, {"smiles": "C=CC(=O)N1CCC[C@@H](S(=O)(=O)c2ccc(N3CC(CN4CCC([C@@](C#N)(c5cccc(F)c5)[C@H]5CCC[C@@H]5NC(=O)OC)CC4)C3)cc2)C1", "note": "[compound 201]", "IC50": "< 500"}, {"smiles": "CC#CC(=O)N1CC(S(=O)(=O)c2ccc(N3CC(O)(CN4CCC([C@@](CN5CCC5)(c5cccc(F)c5)[C@H]5CCC[C@@H]5NC(=O)OC)CC4)C3)cc2)C1", "note": "[compound 203]", "IC50": "< 10"}, {"smiles": "COC(=O)N[C@H]1CCC[C@@H]1[C@](CN1CCC1)(c1cccc(F)c1)C1CCN(CC2CN(c3ccc(S(=O)(=O)[C@@H]4CCCN(C(=O)/C=C/CN5CCCCC5)C4)cc3)C2)CC1", "note": "[compound 204]", "IC50": "< 50"}, {"smiles": "COC(=O)N[C@H]1CCC[C@@H]1[C@](CN1CCC1)(c1cccc(F)c1)C1CCN(CC2(F)CN(c3ccc(S(=O)(=O)C4CN(C(=O)/C=C/CN(C)C)C4)cc3F)C2)CC1", "note": "[compound 96]", "IC50": "< 10"}, {"smiles": "C=CC(=O)Nc1cncc(S(=O)(=O)c2ccc(N3CC(CN4CCC([C@@](CN5CCC5)(c5cccc(F)c5)[C@H]5CCC[C@@H]5NC(=O)OC)CC4)C3)cc2)c1", "note": "[compound 79]", "IC50": "< 50"}, {"smiles": "C=CC(=O)N1CCCC(S(=O)(=O)c2ccc(N3CC(F)(CN4CCC([C@@](CNC(C)=O)(c5cccc(F)c5)[C@H]5CCC[C@@H]5NC(=O)OC)CC4)C3)cc2)C1", "note": "(some centres unmarked) [compound 149]", "IC50": "< 500"}, {"smiles": "C=CC(=O)Nc1ccnc(S(=O)(=O)c2ccc(N3CC(F)(CN4CCC([C@@](CN5CCC5)(c5cccc(F)c5)[C@H]5CCC[C@@H]5NC(=O)OC)CC4)C3)c(F)c2)c1", "note": "[compound 87]", "IC50": "< 500"}, {"smiles": "CC#CC(=O)N1CCC[C@H](S(=O)(=O)c2ccc(N3CC(F)(CN4CCC([C@@](CN5CCC5)(c5cccc(F)c5)[C@H]5CCC[C@@H]5NC(=O)OC)CC4)C3)c(F)c2)C1", "note": "[compound 192]", "IC50": "< 10"}, {"smiles": "C=CC(=O)N1CCC[C@@H](S(=O)(=O)c2ccc(N3CC(CN4CCC([C@@](CN5CCC5)(c5cccc(F)c5)[C@H]5CCC[C@@H]5NC(=O)OC)CC4)C3)cc2)C1", "note": "[compound 197]", "IC50": "< 10"}, {"smiles": "CC#CC(=O)N1CC(S(=O)(=O)c2ccc(N3CC(CN4CCC([C@@](CNC(C)=O)(c5cccc(F)c5)[C@H]5CCC[C@@H]5NC(=O)OC)CC4)C3)cc2)C1", "note": "[compound 130]", "IC50": "< 10"}, {"smiles": "CC#CC(=O)N1CC(S(=O)(=O)c2ccc(N3CC(F)(CN4CCC([C@@](CNC(C)=O)(c5cccc(F)c5)[C@H]5CCC[C@@H]5NC(=O)OC)CC4)C3)cc2CN2CC(F)C2)C1", "note": "[compound 178]", "IC50": "< 50"}, {"smiles": "C=CC(=O)N1CCCC(S(=O)(=O)c2ccc(N3CC(F)(CN4CCC([C@@](CN5CCC5)(c5cccc(F)c5)[C@H]5CCC[C@@H]5NC(=O)OC)CC4)C3)c(F)c2)C1", "note": "(some centres unmarked) [compound 105]", "IC50": "< 50"}, {"smiles": "COC(=O)N[C@H]1CCC[C@@H]1[C@](CN1CCC1)(c1cccc(F)c1)C1CCN(CC2CN(c3ccc(S(=O)(=O)C4CN(C(=O)/C=C/CN5CCC(O)CC5)C4)cc3)C2)CC1", "note": "[compound 98]", "IC50": "< 10"}, {"smiles": "C=CC(=O)N1CCCC(S(=O)(=O)c2ccc(N3CC(C)(CN4CCC([C@@](CN5CCC5)(c5cccc(F)c5)[C@H]5CCC[C@@H]5NC(=O)OC)CC4)C3)c(F)c2)C1", "note": "(some centres unmarked) [compound 113]", "IC50": "< 50"}, {"smiles": "C=CC(=O)N1CCC[C@@H](S(=O)(=O)c2ccc(N3CC(CF)(CN4CCC([C@@](CN5CCC5)(c5cccc(F)c5)[C@H]5CCC[C@@H]5NC(=O)OC)CC4)C3)cc2)C1", "note": "[compound 196]", "IC50": "< 100"}, {"smiles": "CCOC(=O)/C=C/CNC(=O)c1cccc(S(=O)(=O)c2ccc(N3CC(F)(CN4CCC([C@@](CN5CCC5)(c5cccc(F)c5)[C@H]5CCC[C@@H]5NC(=O)OC)CC4)C3)cc2)c1", "note": "[compound 119]", "IC50": "< 100"}, {"smiles": "COC(=O)N[C@H]1CCC[C@@H]1[C@](CNC(C)=O)(c1cccc(F)c1)C1CCN(CC2CN(c3ccc(S(=O)(=O)C4CN(C(=O)/C=C/CN5CCCCC5)C4)cc3)C2)CC1", "note": "[compound 129]", "IC50": "< 10"}, {"smiles": "C=CC(=O)N1CC[C@@H](S(=O)(=O)c2ccc(N3CC(CN4CCC([C@@](CN5CCC5)(c5cccc(F)c5)[C@H]5CCC[C@@H]5NC(=O)OC)CC4)C3)cc2CN2CC(F)C2)C1", "note": "[compound 209]", "IC50": "< 50"}, {"smiles": "C=CC(=O)N1CCC[C@@H](S(=O)(=O)c2ccc(N3CC(C)(CN4CCC([C@@](CN5CCC5)(c5cccc(F)c5)[C@H]5CCC[C@@H]5NC(=O)OC)CC4)C3)cc2)C1", "note": "[compound 211]", "IC50": "< 50"}, {"smiles": "CC#CC(=O)N1CC[C@@H](S(=O)(=O)c2ccc(N3CC(O)(CN4CCC([C@@](CN5CCC5)(c5cccc(F)c5)[C@H]5CCC[C@@H]5NC(=O)OC)CC4)C3)c(F)c2)C1", "note": "[compound 202]", "IC50": "< 10"}, {"smiles": "CC#CC(=O)N1CC[C@@H](S(=O)(=O)c2ccc(N3CC(CN4CCC([C@@](CN5CCC5)(c5cccc(F)c5)[C@H]5CCC[C@@H]5NC(=O)OC)CC4)C3)cc2CN2CC(F)C2)C1", "note": "[compound 210]", "IC50": "< 50"}, {"smiles": "CC#CC(=O)N1CCCC(S(=O)(=O)c2ccc(N3CC(F)(CN4CCC([C@@](CN5CCC5)(c5cccc(F)c5)[C@H]5CCC[C@@H]5NC(=O)OC)CC4)C3)c(F)c2)C1", "note": "(some centres unmarked) [compound 109]", "IC50": "< 50"}, {"smiles": "COC(=O)N[C@H]1CCC[C@@H]1[C@](CN1CCC1)(c1cccc(F)c1)C1CCN(CC2(F)CN(c3ccc(S(=O)(=O)C4CCCN(C(=O)/C=C/CN5CCCCC5)C4)cc3F)C2)CC1", "note": "(some centres unmarked) [compound 110]", "IC50": "< 100"}, {"smiles": "C#CC(=O)N1CCCC(S(=O)(=O)c2ccc(N3CC(F)(CN4CCC([C@@](CN5CCC5)(c5cccc(F)c5)[C@H]5CCC[C@@H]5NC(=O)OC)CC4)C3)c(F)c2)C1", "note": "(some centres unmarked) [compound 111]", "IC50": "< 500"}, {"smiles": "C=CC(=O)Nc1cc(S(=O)(=O)c2ccc(N3CC(F)(CN4CCC([C@@](CN5CCC5)(c5cccc(F)c5)[C@H]5CCC[C@@H]5NC(=O)OC)CC4)C3)c(F)c2)ccc1F", "note": "[compound 90]", "IC50": "< 50"}, {"smiles": "C=CC(=O)Nc1cccc(S(=O)(=O)c2ccc(N3CC[C@@H](CN4CCC([C@@](CN5CCC5)(c5cccc(F)c5)[C@H]5CCC[C@@H]5NC(=O)OC)CC4)C3)cc2)c1", "note": "[compound 104]", "IC50": "< 100"}, {"smiles": "CC#CC(=O)N1CC[C@H](S(=O)(=O)c2ccc(N3CC(F)(CN4CCC([C@@](CN5CCC5)(c5cccc(F)c5)[C@H]5CCC[C@@H]5NC(=O)OC)CC4)C3)c(F)c2)C1", "note": "[compound 194]", "IC50": "< 500"}]}, {"test_system": "MV4-11", "experiment": "7-day proliferation assay (WST-8), cell growth inhibition", "format": "cell-based", "settings": "MV4-11 cells, 7 days", "method": "as §1, §2, §3", "units": {"IC50": "nM"}, "values": [{"smiles": "C=CC(=O)N1CCC(S(=O)(=O)c2ccc(N3CC(F)(CN4CCC([C@@](CN5CCC5)(c5cccc(F)c5)[C@H]5CCC[C@@H]5NC(=O)OC)CC4)C3)c(F)c2)C1", "note": "(some centres unmarked) [compound 107]", "IC50": "< 500"}, {"smiles": "C=CC(=O)N1CCC(S(=O)(=O)c2ccc(N3CC(F)(CN4CCC([C@@](CN5CCC5)(c5cccc(F)c5)[C@H]5CCC[C@@H]5NC(=O)OC)CC4)C3)c(F)c2)C1", "note": "(some centres unmarked) [compound 108]", "IC50": "< 100"}, {"smiles": "CC#CC(=O)N1CCCC(S(=O)(=O)c2ccc(N3CC(F)(CN4CCC([C@@](CN5CCC5)(c5cccc(F)c5)[C@H]5CCC[C@@H]5NC(=O)OC)CC4)C3)c(F)c2)C1", "note": "(some centres unmarked) [compound 114]", "IC50": "< 50"}, {"smiles": "C=CC(=O)N1CCCC(S(=O)(=O)c2ccc(N3CC(F)(CN4CCC([C@@](CN5CCC5)(c5cccc(F)c5)[C@H]5CCC[C@@H]5NC(=O)OC)CC4)C3)c(F)c2)C1", "note": "(some centres unmarked) [compound 106]", "IC50": "< 50"}]}]}
